Molecular target: human MRGPRD (Homo sapiens, UniProt Q8TDS7)
Test: MRGPRD antagonist activity, IP-One HTRF assay in CHO cells stably expressing human MRGPRD (versus 100 μM β-Alanine agonist)
Assay type: cell-based
Summary of the method: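 CHO cells stably expressing human MRGPRD, plated overnight at 37 °C, were treated with antagonist plus agonist in Tris-HCl/NaCl/LiCl buffer pH 8, incubated 1 h at 37 °C then 1 h at room temperature. IP-1 accumulation read by HTRF; IC50 and percent antagonism of maximum efficacy averaged, SEM reported.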

human MRGPRD, sequence (Q8TDS7 whole entry): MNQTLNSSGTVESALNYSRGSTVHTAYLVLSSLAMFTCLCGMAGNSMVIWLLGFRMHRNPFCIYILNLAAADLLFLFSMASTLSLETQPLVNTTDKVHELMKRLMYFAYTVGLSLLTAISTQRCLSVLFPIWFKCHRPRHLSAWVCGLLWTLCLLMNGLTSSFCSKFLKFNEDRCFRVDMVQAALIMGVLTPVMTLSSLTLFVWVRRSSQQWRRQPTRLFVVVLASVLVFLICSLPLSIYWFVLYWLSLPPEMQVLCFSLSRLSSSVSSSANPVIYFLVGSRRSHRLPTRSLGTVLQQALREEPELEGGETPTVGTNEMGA

Structure (SMILES)	IC50 [nM]
CC(C)c1c(C(=O)NC2(c3cccnc3)CC2)nnn1-c1ccc(-c2ccccc2)cc1 [Compound 18-30]	> 3000
CN(Cc1ccc(N2CCOCC2)cc1)C(=O)c1nnn(-c2ccc(-c3ccccc3)cc2)c1C1CC1 [Compound 14-76]	> 3000
CCn1cc(CNC(=O)c2nnn(-c3ccc(-c4c(C)nn(C)c4C)cc3)c2C(C)C)cn1 [Compound 17-11]	< 100
CCn1cc(CNC(=O)c2nnn(-c3ccc(-c4ccc(C#N)cc4)cn3)c2C2CC2)cn1 [Compound 22-4]	1000 to 3000
O=C(Nc1ccncc1)c1nnn(-c2ccc(-c3ccccc3OC(F)(F)F)cc2)c1C1CC1 [Compound 7-186]	1000 to 3000
Cc1ccc(-n2nnc(C(=O)Nc3ccncc3)c2C2CC2)c(C(F)(F)F)c1 [Compound 4-6]	1000 to 3000
COc1cc(-c2ccc(-n3nnc(C(=O)Nc4ccncc4)c3C3CC3)cc2)ccc1C#N [Compound 7-70]	100 to 500
O=C(Nc1ccncc1)c1nnn(-c2ccc(-c3ccnn3CC3CC3)cc2)c1C1CC1 [Compound 7-168]	1000 to 3000
CC1(NC(=O)c2nnn(-c3ccc(-c4ccccc4)cc3)c2C2CC2)CCOCC1 [Compound 14-74]	> 3000
Cc1ccc(-n2nnc(C(=O)Nc3ccnc(F)c3)c2C2CC2)cc1 [Compound 1-7]	500 to 1000
O=C(NCCc1cccs1)c1nnn(-c2ccc(-c3ccccc3)cc2)c1C1CC1 [Compound 14-67]	1000 to 3000
Cc1cc(NC(=O)c2nnn(-c3ccc(-c4c(C)nn(C)c4C)cc3F)c2C2CC2)ccn1 [Compound 7-220]	< 100
O=C(Nc1ccncc1)c1nnn(-c2ccc(-c3cc[nH]n3)cc2)c1C1CC1 [Compound 7-41]	100 to 500
COc1ccc(-c2ccc(-n3nnc(C(=O)Nc4ccncc4)c3C3CC3)cc2)cc1C [Compound 7-84]	100 to 500
Cn1cc(C#N)c(-c2ccc(-n3nnc(C(=O)Nc4ccncc4)c3C3CC3)cc2)n1 [Compound 7-184]	1000 to 3000
N#CCc1ccc(-c2cccc(-n3nnc(C(=O)Nc4ccncc4)c3C3CC3)c2)cc1 [Compound 7-273]	500 to 1000
Cc1ccc(-n2nnc(C(=O)Nc3ccncc3F)c2C2CC2)cc1 [Compound 1-9]	1000 to 3000
Cc1nn(C)c(C)c1-c1ccc(-n2nnc(C(=O)Nc3ccccc3)c2C(C)C)cc1 [Compound 17-16]	100 to 500
O=C(O)c1cccc(-c2ccc(-n3nnc(C(=O)Nc4ccncc4)c3C3CC3)cc2)c1 [Compound 7-213]	> 3000
O=C(NCCc1ncn[nH]1)c1nnn(-c2ccc(-c3ccccc3)cc2)c1C1CC1 [Compound 14-9]	> 3000
CCc1cccc(-c2cccc(-n3nnc(C(=O)Nc4ccncc4)c3C3CC3)c2)c1 [Compound 7-323]	1000 to 3000
COc1ccccc1-c1cccc(-n2nnc(C(=O)Nc3ccncc3)c2C2CC2)c1 [Compound 7-320]	1000 to 3000
Cn1ccc(-c2ccc(-n3nnc(C(=O)Nc4ccncc4)c3C3CC3)cc2)c1 [Compound 7-55]	100 to 500
Cc1nn(-c2ccccc2)c(C)c1-c1ccc(-n2nnc(C(=O)NCc3cccnc3)c2C2CC2)cc1 [Compound 9-14]	100 to 500

Structure (SMILES)	IC50 [nM]
Cc1ccc(-n2nnc(C(=O)Nc3ccncc3)c2C2CC2)c(F)c1 [Compound 2-2]	500 to 1000
Cc1ccc(CNC(=O)c2nnn(-c3ccc(-c4c(C)nn5cccnc45)cc3)c2C2CC2)cn1 [Compound 10-5]	100 to 500
Cc1nn(-c2ccccc2)c(C)c1-c1ccc(-n2nnc(C(=O)N3Cc4cnn(C)c4C3)c2C2CC2)cc1 [Compound 9-29]	500 to 1000
N#Cc1ccc(-c2ccc(-n3nnc(C(=O)NC4(c5cncc(F)c5)CC4)c3C3CC3)cc2)cc1 [Compound 18-18]	1000 to 3000
Cc1nn(C)c(C)c1-c1ccc(-n2nnc(C(=O)Nc3ccc(NS(C)(=O)=O)cc3)c2C2CC2)cc1 [Compound 9-34]	1000 to 3000
Cc1nn(C)c(C)c1-c1ccc(-n2nnc(C(=O)Nc3ccncc3)c2C2CC2)c(OC(F)(F)F)c1 [Compound 7-239]	100 to 500
NS(=O)(=O)c1ccc(-c2ccc(-n3nnc(C(=O)Nc4ccncc4)c3C3CC3)cc2)cc1 [Compound 7-141]	500 to 1000
CC(C)c1c(C(=O)Nc2cccc(C#N)c2)nnn1-c1ccc(-c2cnn(C)c2)cc1 [Compound 17-30]	500 to 1000
CC(=O)c1ccc(-c2cccc(-n3nnc(C(=O)NCc4ccc(C)nc4)c3C3CC3)c2)c(F)c1 [Compound 7-297]	1000 to 3000
Cn1ncc2c1CN(C(=O)c1nnn(-c3ccc(-c4ccccc4)cc3)c1C1CC1)C2 [Compound 14-17]	100 to 500
O=C(Nc1ccncc1)c1nnn(-c2ccc(C3=CCOCC3)cc2)c1C1CC1 [Compound 7-114]	500 to 1000
CC(C)Oc1ccccc1-c1ccc(-n2nnc(C(=O)Nc3ccncc3)c2C2CC2)cc1 [Compound 7-160]	500 to 1000
Cc1cc(NC(=O)c2nnn(C3CC=C(c4ccc(F)cc4)CC3)c2C2CC2)ccn1 (stereo not drawn) [Compound 12-4]	500 to 1000
COc1cc(-c2c(C)nn(C)c2C)ccc1-n1nnc(C(=O)Nc2ccncc2)c1C1CC1 [Compound 7-226]	100 to 500
O=C(Nc1ccncc1)c1nnn(-c2cccc(-c3ccccc3C(F)(F)F)c2)c1C1CC1 [Compound 7-285]	1000 to 3000
COc1ccc(-c2cccc(-n3nnc(C(=O)Nc4ccncc4)c3C3CC3)c2)cc1C [Compound 7-258]	500 to 1000
Cc1cc(NC(=O)c2nnn(-c3ccc(-c4c(C)nn(C)c4C)cc3)c2C(C)C)ccn1 [Compound 10-10]	< 100
CCc1cc(-n2nnc(C(=O)Nc3ccncc3)c2C2CC2)ccc1C [Compound 5-4, 5-cyclopropyl-1-(3-ethyl-4-methylphenyl)-N-(pyridin-4-yl)-1H-1,2,3-triazole-4-carboxamide]	500 to 1000
O=C(Nc1ccncc1)c1nnn(-c2ccc(-c3cccc(CO)c3)cc2)c1C1CC1 [Compound 7-171]	1000 to 3000
Cc1nn(C)c(C)c1-c1ccc(-n2nnc(C(=O)NC(C)(C)c3cccnc3)c2C2CC2)cc1 [Compound 15-13]	500 to 1000
Cc1n[nH]c(C)c1-c1ccc(-n2nnc(C(=O)Nc3ccncc3)c2C2CC2)cc1 [Compound 7-102]	100 to 500
CCc1ccc(-c2cccc(-n3nnc(C(=O)Nc4ccncc4)c3C3CC3)c2)cc1 [Compound 7-284]	500 to 1000
O=C(Nc1ccncc1)c1nnn(-c2ccc(-c3ccc(F)cc3)cc2)c1C1CC1 [Compound 7-65]	100 to 500
Cn1cc(C2(NC(=O)c3nnn(-c4ccc(-c5ccccc5)cc4)c3C3CC3)CC2)cn1 [Compound 14-69]	1000 to 3000

Structure (SMILES)	IC50 [nM]
N#Cc1ccc(-c2cccc(-n3nnc(C(=O)Nc4ccncc4)c3C3CC3)c2)cc1 [Compound 7-264]	500 to 1000
Cc1c[nH]nc1-c1ccc(-n2nnc(C(=O)Nc3ccncc3)c2C2CC2)cc1 [Compound 7-119]	500 to 1000
O=C(Nc1ccncc1)c1nnn(-c2ccc(-c3ccncc3)cc2)c1C1CC1 [Compound 7-178]	1000 to 3000
CC(C)n1nc(C(F)(F)F)cc1-c1ccc(-n2nnc(C(=O)Nc3ccncc3)c2C2CC2)cc1 [Compound 7-157]	500 to 1000
Cc1cc(NC(=O)c2nnn(-c3ccc(-c4ccc(C#N)cc4)nc3)c2C2CC2)ccn1 [Compound 7-242]	500 to 1000
CC(=O)c1ccc(-c2cccc(-n3nnc(C(=O)Nc4ccncc4)c3C3CC3)c2)cc1 [Compound 7-274]	500 to 1000
N#Cc1c[nH]nc1-c1ccc(-n2nnc(C(=O)Nc3ccncc3)c2C2CC2)cc1 [Compound 7-143]	500 to 1000
CC(NC(=O)c1nnn(-c2ccc(-c3ccccc3)cc2)c1C1CC1)c1cncnc1 (stereo not drawn) [Compound 14-8]	> 3000
N#Cc1ccccc1-c1ccc(-n2nnc(C(=O)Nc3ccncc3)c2C2CC2)cc1 [Compound 7-180]	1000 to 3000
Cc1ccc(-c2ccc(-n3nnc(C(=O)Nc4ccnc(C)c4)c3C3CC3)cc2)cn1 [Compound 17-9]	100 to 500
Cc1cc(C#N)ccc1-c1ccc(-n2nnc(C(=O)Nc3ccncc3)c2C2CC2)cc1 [Compound 7-15]	< 100
CCn1cc(C(C)NC(=O)c2nnn(-c3ccc(-c4ccccc4)cc3)c2C2CC2)cn1 (stereo not drawn) [Compound 14-27]	500 to 1000
Cc1cc(NC(=O)c2nnn(C3CC=C(c4c(C)nn(C)c4C)CC3)c2C2CC2)ccn1 (stereo not drawn) [Compound 12-1, 5-cyclopropyl-N-(2-methylpyridin-4-yl)-1-(4-(1,3,5-trimethyl-1H-pyrazol-4-yl)cyclohex-3-en-1-yl)-1H-1,2,3-triazole-4-carboxamide]	100 to 500
N#Cc1ccc(-c2ccc(-n3nnc(C(=O)NC4(c5cncc(Cl)c5)CC4)c3C3CC3)cc2)cc1 [Compound 18-1]	100 to 500
CN(C)Cc1cccc(-c2ccc(-n3nnc(C(=O)Nc4ccncc4)c3C3CC3)cc2)c1 [Compound 7-146]	500 to 1000
CN(C)c1ccc(-c2ccc(-n3nnc(C(=O)Nc4ccncc4)c3C3CC3)cc2)cc1 [Compound 7-98]	100 to 500
CCn1cc(CNC(=O)c2nnn(-c3ccc(-c4c(C)nn5cccnc45)cc3)c2C2CC2)cn1 [Compound 10-6]	100 to 500
NS(=O)(=O)c1cccc(-c2ccc(-n3nnc(C(=O)Nc4ccncc4)c3C3CC3)cc2)c1 [Compound 7-135]	500 to 1000
CCn1cc(CNC(=O)c2nnn(-c3ccc(-c4ccc(C#N)cc4)cc3OC)c2C(C)C)cn1 [Compound 17-21]	100 to 500
O=C(Nc1ccncc1)c1nnn(-c2ccc(-c3cccc(C(F)(F)F)c3)cc2)c1C1CC1 [Compound 7-155]	500 to 1000
CC(=O)c1cc(NC(=O)c2nnn(-c3ccc(-c4ccccc4)cc3)c2C2CC2)ccn1 [Compound 14-88]	1000 to 3000
Cn1cc(-c2ccc(-n3nnc(C(=O)Nc4ccncc4)c3C3CC3)cc2)cn1 [Compound 7-126]	500 to 1000
CCn1cc(-c2ccc(-n3nnc(C(=O)Nc4ccncc4)c3C3CC3)cc2)c(C)n1 [Compound 7-189]	1000 to 3000
CCn1nc(C)c(-c2ccc(-n3nnc(C(=O)Nc4ccnc(C)c4)c3C3CC3)c(F)c2)c1C [Compound 7-219]	< 100
